Source: patent US10047050B2, “3,4-di-substituted pyridine compound, methods of using and compositions comprising the same” (ARDEA BIOSCIENCES, INC., priority 2011, dated 2018)
Several values for one entry are separate records, joined by “and”; a condition that tells them apart may be missing. Equal entries are not always repeated.

Test system: serum uric acid
Assay: Multi-dose Phase I clinical trial, serum uric acid (sUA), once daily for 10 days
Type: in vivo, human
Settings: for Absolute sUA concentration: individual subjects 4-12; for Absolute sUA concentration, Mean (4-10): mean of subjects 4-10
Source text: A Phase 1, Randomized, Double-Blind, Placebo-Controlled Study to Evaluate Safety, Tolerability, Pharmacokinetics and Preliminary Food Effect of Multiple Rising Doses of a URAT1 Inhibitor, in Healthy Adult Male Volunteers.
Fasted subjects receive oral doses of active or placebo, once daily, for 10 days, at the following doses:
36 subjects in 3 dose groups, 12 subjects/group, are randomized […] to receive active (9/group) or placebo ([…]). All study procedures are the same regardless of whether subject receives active or placebo. Total duration of subject participation, including screening period, is ˜2-4 weeks, and the total volume of blood collected from each subject during the entire study <500 mL, (less than typically collected during a volunteer blood donation).
5 mg, active and placebo, tablets packaged in 35 count HDPE bottles, stored at controlled room temperature (15-30° C.). Placebo tablets are designed to match the active tablets—identical size, form, taste, and color, and containing the same excipients. 1 mg doses were administered as oral solutions.
Subjects dosed in the morning of Days 1-10 with ˜240 mL of room temp water.
Urine, serum and plasma samples collected periodically
PD samples frozen (−20° C.) and stored; all samples from a given subject assayed in a single analytical run.

[1] = group 7, 1 mg once daily for 10 days, Time 192, mean of subjects 4-12
[2] = group 7, 1 mg once daily for 10 days, Time 216, mean of subjects 4-12
[3] = group 7, 1 mg once daily for 10 days, Time 222 (post dosing), mean of subjects 4-12
[4] = group 7, 1 mg once daily for 10 days, Time 228 (post dosing), mean of subjects 4-12
[5] = group 7, 1 mg once daily for 10 days, Time 240 (post dosing), mean of subjects 4-12
[6] = group 7, 1 mg once daily for 10 days, Time 246 (post dosing), mean of subjects 4-12
[7] = group 7, 1 mg once daily for 10 days, Time 252 (post dosing), mean of subjects 4-12
[8] = group 7, 1 mg once daily for 10 days, Time 264 (post dosing), mean of subjects 4-12
[9] = group 7, 1 mg once daily for 10 days, Time 270 (post dosing), mean of subjects 4-12
[10] = group 7, 1 mg once daily for 10 days, Time 288 (post dosing), mean of subjects 4-12
[11] = group 7, 1 mg once daily for 10 days, Time 312 (post dosing), mean of subjects 4-12

CC(C)(Sc1ccncc1-c1ccc(C#N)c2ccccc12)C(=O)O [2-((3-(4-cyanonaphthalen-1-yl)pyridin-4-yl)thio)-2-methylpropanoic acid]
Absolute sUA concentration, Mean (4-12) (group 7, 1 mg once daily for 10 days, Time 168, mean of subjects 4-12): 6.1 mg/dL | Absolute sUA concentration (group 7, 1 mg once daily for 10 days, Time 192): 4.6 mg/dL and 5.0 mg/dL and 4.9 mg/dL and 6.5 mg/dL and 6.1 mg/dL and 5.9 mg/dL and 5.6 mg/dL and 5.1 mg/dL and 5.5 mg/dL | % sUA change (from baseline), Mean (4-12) [1]: −11.4% | Absolute sUA concentration, Mean (4-12) [1]: 5.5 mg/dL | Absolute sUA concentration (group 7, 1 mg once daily for 10 days, Time 216): 4.7 mg/dL (2×) and 4.9 mg/dL (2×) and 6.1 mg/dL and 5.8 mg/dL and 5.3 mg/dL and 5.6 mg/dL and 5.9 mg/dL | % sUA change (from baseline), Mean (4-12) [2]: −13.6% | Absolute sUA concentration, Mean (4-12) [2]: 5.3 mg/dL | Absolute sUA concentration (group 7, 1 mg once daily for 10 days, Time 222 (post dosing)): 4.7 mg/dL and 5.2 mg/dL and 4.9 mg/dL and 6.3 mg/dL and 5.9 mg/dL and 5.8 mg/dL and 5.4 mg/dL and 5.0 mg/dL and 5.5 mg/dL | % sUA change (from baseline), Mean (4-12) [3]: −12.2% | Absolute sUA concentration, Mean (4-12) [3]: 5.4 mg/dL | Absolute sUA concentration (group 7, 1 mg once daily for 10 days, Time 228 (post dosing)): 4.3 mg/dL and 4.8 mg/dL (2×) and 4.9 mg/dL and 6.2 mg/dL and 5.6 mg/dL and 5.5 mg/dL and 5.3 mg/dL and 5.4 mg/dL | % sUA change (from baseline), Mean (4-12) [4]: −15.6% | Absolute sUA concentration, Mean (4-12) [4]: 5.2 mg/dL | Absolute sUA concentration (group 7, 1 mg once daily for 10 days, Time 240 (post dosing)): 4.8 mg/dL and 5.5 mg/dL and 5.3 mg/dL and 6.9 mg/dL and 6.2 mg/dL (2×) and 5.9 mg/dL and 5.2 mg/dL and 6.0 mg/dL | % sUA change (from baseline), Mean (4-12) [5]: −6.3% | Absolute sUA concentration, Mean (4-12) [5]: 5.8 mg/dL | Absolute sUA concentration (group 7, 1 mg once daily for 10 days, Time 246 (post dosing)): 4.4 mg/dL | % sUA change (from baseline), Mean (4-12) [6]: −13.2% | Absolute sUA concentration, Mean (4-12) [6]: 5.4 mg/dL | % sUA change (from baseline), Mean (4-12) [7]: −10.6% | Absolute sUA concentration, Mean (4-12) [7]: 5.5 mg/dL | % sUA change (from baseline), Mean (4-12) [8]: −10.3% | Absolute sUA concentration, Mean (4-12) [8]: 5.5 mg/dL | % sUA change (from baseline), Mean (4-12) [9]: −17.4% | Absolute sUA concentration, Mean (4-12) [9]: 5.1 mg/dL | % sUA change (from baseline), Mean (4-12) [10]: −19.8% | Absolute sUA concentration, Mean (4-12) [10]: 5.0 mg/dL | % sUA change (from baseline), Mean (4-12) [11]: −14.9% | Absolute sUA concentration, Mean (4-12) [11]: 5.3 mg/dL | % sUA change (from baseline), Mean (4-12) (group 8, 5 mg once daily for 10 days, Time 0, mean of active subjects): 0% | Absolute sUA concentration, Mean (4-10) (group 8, 5 mg once daily for 10 days, Time 0): 5.9 mg/dL | % sUA change (from baseline), Mean (4-12) (group 8, 5 mg once daily for 10 days, Time 6, mean of active subjects): −20.5% | Absolute sUA concentration, Mean (4-10) (group 8, 5 mg once daily for 10 days, Time 6): 4.7 mg/dL | % sUA change (from baseline), Mean (4-12) (group 8, 5 mg once daily for 10 days, Time 12, mean of active subjects): −25.6% | Absolute sUA concentration, Mean (4-10) (group 8, 5 mg once daily for 10 days, Time 12): 4.4 mg/dL | % sUA change (from baseline), Mean (4-12) (group 8, 5 mg once daily for 10 days, Time 24, mean of active subjects): −21.1% | Absolute sUA concentration, Mean (4-10) (group 8, 5 mg once daily for 10 days, Time 24): 4.7 mg/dL | % sUA change (from baseline), Mean (4-12) (group 8, 5 mg once daily for 10 days, Time 48, mean of active subjects): −30.9% | Absolute sUA concentration, Mean (4-10) (group 8, 5 mg once daily for 10 days, Time 48): 4.1 mg/dL | % sUA change (from baseline), Mean (4-12) (group 8, 5 mg once daily for 10 days, Time 72, mean of active subjects): −33.7% | Absolute sUA concentration, Mean (4-10) (group 8, 5 mg once daily for 10 days, Time 72): 3.9 mg/dL | % sUA change (from baseline), Mean (4-12) (group 8, 5 mg once daily for 10 days, Time 96, mean of active subjects): −30.4% | Absolute sUA concentration, Mean (4-10) (group 8, 5 mg once daily for 10 days, Time 96): 4.1 mg/dL | % sUA change (from baseline), Mean (4-12) (group 8, 5 mg once daily for 10 days, Time 102, mean of active subjects): −37.8% | Absolute sUA concentration, Mean (4-10) (group 8, 5 mg once daily for 10 days, Time 102): 3.7 mg/dL | % sUA change (from baseline), Mean (4-12) (group 8, 5 mg once daily for 10 days, Time 108, mean of active subjects): −40.2% | Absolute sUA concentration, Mean (4-10) (group 8, 5 mg once daily for 10 days, Time 108): 3.5 mg/dL | % sUA change (from baseline), Mean (4-12) (group 8, 5 mg once daily for 10 days, Time 120, mean of active subjects): −30% | Absolute sUA concentration, Mean (4-10) (group 8, 5 mg once daily for 10 days, Time 120): 4.1 mg/dL | % sUA change (from baseline), Mean (4-12) (group 8, 5 mg once daily for 10 days, Time 144, mean of active subjects): −35.2% | Absolute sUA concentration, Mean (4-10) (group 8, 5 mg once daily for 10 days, Time 144): 3.8 mg/dL | % sUA change (from baseline), Mean (4-12) (group 8, 5 mg once daily for 10 days, Time 168, mean of active subjects): −38.1% | Absolute sUA concentration, Mean (4-10) (group 8, 5 mg once daily for 10 days, Time 168): 3.6 mg/dL | % sUA change (from baseline), Mean (4-12) (group 8, 5 mg once daily for 10 days, Time 192, mean of active subjects): −35.7% | Absolute sUA concentration, Mean (4-10) (group 8, 5 mg once daily for 10 days, Time 192): 3.8 mg/dL | % sUA change (from baseline), Mean (4-12) (group 8, 5 mg once daily for 10 days, Time 216, mean of active subjects): −33.4% | Absolute sUA concentration, Mean (4-10) (group 8, 5 mg once daily for 10 days, Time 216): 3.9 mg/dL | % sUA change (from baseline), Mean (4-12) (group 8, 5 mg once daily for 10 days, Time 222 (post dosing), mean of active subjects): −39.6% | Absolute sUA concentration, Mean (4-10) (group 8, 5 mg once daily for 10 days, Time 222 (post dosing)): 3.6 mg/dL | % sUA change (from baseline), Mean (4-12) (group 8, 5 mg once daily for 10 days, Time 228 (post dosing), mean of active subjects): −41.4% | Absolute sUA concentration, Mean (4-10) (group 8, 5 mg once daily for 10 days, Time 228 (post dosing)): 3.5 mg/dL | % sUA change (from baseline), Mean (4-12) (group 8, 5 mg once daily for 10 days, Time 240 (post dosing), mean of active subjects): −31.2% | Absolute sUA concentration, Mean (4-10) (group 8, 5 mg once daily for 10 days, Time 240 (post dosing)): 4.1 mg/dL | % sUA change (from baseline), Mean (4-12) (group 8, 5 mg once daily for 10 days, Time 246 (post dosing), mean of active subjects): −35.8% | Absolute sUA concentration, Mean (4-10) (group 8, 5 mg once daily for 10 days, Time 246 (post dosing)): 3.8 mg/dL | % sUA change (from baseline), Mean (4-12) (group 8, 5 mg once daily for 10 days, Time 252 (post dosing), mean of active subjects): −39.1% | Absolute sUA concentration, Mean (4-10) (group 8, 5 mg once daily for 10 days, Time 252 (post dosing)): 3.6 mg/dL | % sUA change (from baseline), Mean (4-12) (group 8, 5 mg once daily for 10 days, Time 264 (post dosing), mean of active subjects): −31.9% | Absolute sUA concentration, Mean (4-10) (group 8, 5 mg once daily for 10 days, Time 264 (post dosing)): 4.0 mg/dL | % sUA change (from baseline), Mean (4-12) (group 8, 5 mg once daily for 10 days, Time 270 (post dosing), mean of active subjects): −22.9% | Absolute sUA concentration, Mean (4-10) (group 8, 5 mg once daily for 10 days, Time 270 (post dosing)): 4.5 mg/dL | % sUA change (from baseline), Mean (4-12) (group 8, 5 mg once daily for 10 days, Time 288 (post dosing), mean of active subjects): −24.8% | Absolute sUA concentration, Mean (4-10) (group 8, 5 mg once daily for 10 days, Time 288 (post dosing)): 4.4 mg/dL | % sUA change (from baseline), Mean (4-12) (group 8, 5 mg once daily for 10 days, Time 312 (post dosing), mean of active subjects): −13.7% | Absolute sUA concentration, Mean (4-10) (group 8, 5 mg once daily for 10 days, Time 312 (post dosing)): 5.1 mg/dL
